How the values were obtained:
[1] = test system: reconstructed human epidermis containing melanocytes MelanoDerm™ MEL-300-B; assay: Melanogenesis inhibition in reconstructed human epidermis containing melanocytes (MelanoDerm); type: cell-based; details: 1.0% in 50% PEG (10 µL), 14 days
Method: (§1) The research was carried out on reconstructed human epidermis containing melanocytes MelanoDerm™ MEL-300-B from MatTek (Bratislava, Slovakia). The ratio of keratinocytes to melanocytes in the epidermis used is 10:1. Only medium purchased from the same manufacturer (EPI-100-NMM-113) was used to culture the epidermis during the experiments. Once the epidermis was obtained, it was transferred to 12-well plates containing 5 mL of medium/well. Plates were used to enable proper contact of the lower parts of the inserts with the substrate (so-called hanging-top plate). Solutions of the compounds were prepared immediately before their application. The solutions were applied to the inserts using a positive displacement pipette and then distributed using a sterile glass bulb headed Pasteur pipette. The application was repeated every 48 hours, a total of 7 applications were performed. Before the next application, each insert was rinsed with sterile DPBS and dried with a sterile cotton buds. The application was also accompanied by a change of the medium. […] The epidermis was cultured in an incubator ensuring appropriate humidity, temperature (37 °C) and CO2 concentration (5%).
The experiment was conducted for 14 days. After this time, the inserts were rinsed with DPBS and dried with a cotton swab. For the selected pool of inserts, tissue viability was assessed using the MTT (Thiazolyl Blue Tetrazolium bromide) test, the remaining ones were used to determine the amount of melanin. To assess viability, the inserts were transferred to 24-well plate containing 0.3 mL of DMEM medium with 1 mg/mL MTT and incubated for 3 hours in an incubator. The epidermis was then placed in 2 mL of isopropanol and the resulting formazan was extracted for 2 hours at room temperature. The absorbance of the samples was measured at 570 nm in a microplate reader and correlated with the absorbance of the control by the formula: % Viability = [OD (570 nm) for test compound/OD (570 nm) for control] × 100. To determine the amount of melanin, the inserts were incubated in 5% sodium bicarbonate for 30 min, then dried and placed in 0.5 mL of Solvable™ reagent, which caused complete lysis of the epidermis. After heating at 95 °C, the absorbance of the samples was measured at 405 nm in a microplate reader. On this basis, the reduction in the amount of melanin was calculated in relation to the control sample. The absorbance results were also correlated with a standard curve for synthetic melanin. […] Table 5. Viability and melanin content in the MelanoDerm epidermis after application of the tested samples, calculated on the basis of absorbance measurements.
as §1, with “Only media” for “Only medium”, “cotton bud.” for “cotton buds.”
The experiment was conducted for 14 days. After this time, the inserts were rinsed with DPBS and dried with a cotton bud. […]

[2] = test system: S. typhimurium TA1537; assay: Ames microplate test, TA1537; type: cell-based, Salmonella typhimurium;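 also: reference level is the mean solvent-control yellow wells plus SD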
Method: Bacteria were grown overnight in growth medium.
Table 9. Ames microplate test results.

[3] = test system: Primary melanocytes; assay: Safety, MTT test in primary melanocytes; type: cell-based; details: 48 hours
Method: (§2) In order to test the safety of the compounds, both normal human cells were used: keratinocytes (HaCaT), fibroblasts (BJ), primary melanocytes that occur in the skin, as well as human cancer cells: the hepatocarcinoma line HepG2 and the neuroblastoma line SH-SY5Y, which are considered a model for the assessment of hepatocytotoxicity and neurocytotoxicity. The concentrations of the tested compounds in the range of 250-100 µM were used in the studies. The cell lines used in the research were purchased from the American Type Culture Collection (ATCC) and were cultured in media recommended by the manufacturer with the addition of FBS and antibiotics in an incubator ensuring appropriate culture conditions, i.e. humidity, temperature and CO2 concentration. Cells were seeded into multiwell plates and incubated with the test compounds for 48 hours. After this time, MTT and LDH tests were performed to assess cell viability. The MTT test is based on the ability to transform the substrate: [3-(4,5-dimethyl-2-thiazolyl)-2,5-diphenyl-2H-tetrazolium bromide into a colored product only by living cells. The absorbance at 570 nm, which corresponds to the absorption maximum for the product, is directly proportional to cell viability. The LDH test is based on testing the activity of the enzyme lactate dehydrogenase in the culture medium, which is released from cells as a result of damage to the cell membrane, e.g. as a result of cell death. Triton X-100 was used as a positive control in the test. The determination is colorimetric, the substrate is transformed by the released enzyme into a colored product, an increase in absorbance indicates a larger amount of the released enzyme, and thus confirms greater damage to cell membranes. Tables 7 and 8 present the results obtained, which correspond to the viability of cells incubated with the compounds in relation to the viability of cells constituting a control sample, i.e. incubated with the solvent (DMSO) at the same concentration as in the case of the groups tested in the MTT test or in relation to the results obtained for the Triton X-100 positive control in the LDH test. They indicate that the compounds are safe at the concentrations tested. Table 7. Viability of tested normal human cell lines: keratinocytes (HaCaT), fibroblasts (BJ) and primary melanocytes after incubation with the tested compounds - determination in the MTT test (% of solvent control ± SD) and LDH (percentage of positive control - Triton X-100.

[4] = test system: Primary melanocytes; assay: Safety, LDH test in primary melanocytes; type: cell-based; details: 48 hours, positive control Triton X-100
Method: as §2

[5] = test system: Fibroblasts (BJ); assay: Safety, LDH test in fibroblasts; type: cell-based; details: 48 hours, positive control Triton X-100
Method: as §2

[6] = test system: neuroblastoma SH-SY5Y; assay: Safety, LDH test in SH-SY5Y; type: cell-based; details: 48 hours, positive control Triton X-100
Method: as §2

Compound | Increase in the number of yellow wells compared to the reference level ([2]; 0.5 mM, without S9) | Increase in the number of yellow wells compared to the reference level ([2]; 1.0 mM, without S9) | Increase in the number of yellow wells compared to the reference level ([2]; 2.0 mM, without S9) | Primary melanocytes MTT ([3]; 100 µM) | Primary melanocytes MTT ([3]; 150 µM) | Primary melanocytes MTT ([3]; 200 µM) | Primary melanocytes MTT ([3]; 250 µM) | Primary melanocytes LDH ([4]; 100 µM) | Primary melanocytes LDH ([4]; 150 µM) | Primary melanocytes LDH ([4]; 200 µM) | Primary melanocytes LDH ([4]; 250 µM) | Fibroblasts (BJ) LDH ([5]; 100 µM) | Fibroblasts (BJ) LDH ([5]; 150 µM) | Fibroblasts (BJ) LDH ([5]; 200 µM) | Fibroblasts (BJ) LDH ([5]; 250 µM) | Neuroblastoma SH-SYSY LDH ([6]; 100 µM) | Neuroblastoma SH-SYSY LDH ([6]; 150 µM) | Neuroblastoma SH-SYSY LDH ([6]; 200 µM) | Neuroblastoma SH-SYSY LDH ([6]; 250 µM) | other results
O=C(/C=C/c1ccccc1)NCCCCCCO [H-425/21, (E)-N-(6-hydroxyhexyl)cinnamic acid amide] | 0.09 | 0.18 | 0.82 |  |  |  |  |  |  |  |  |  |  |  |  |  |  |  |  | Melanin content [% control, mean ± SD] ([1]; 7 applications): 102.98±4.25 % control; Viability [% control, mean ± SD] ([1]; MTT): 87.16±6.30 % control; Increase in the number of yellow wells compared to the reference level ([2]; 0.5 mM, +S9): 1.33; Increase in the number of yellow wells compared to the reference level ([2]; 1.0 mM, +S9): 0.00; Increase in the number of yellow wells compared to the reference level ([2]; 2.0 mM, +S9): 1.00
O=C(/C=C/c1ccc(Cl)cc1)NCCCO [H-330/21, (2E)-3-(4-chlorophenyl)-N-(3-hydroxypropyl)prop-2-enamide] |  |  |  | 101.42±2.21 % of solvent control | 97.02±4.49 % of solvent control | 93.78±2.29 % of solvent control | 90.27±2.25 % of solvent control | 5.63 percentage of positive control | 13.09 percentage of positive control | 10.91 percentage of positive control | 18.10 percentage of positive control | 4.74 percentage of positive control | 6.50 percentage of positive control | 14.25 percentage of positive control | 28.74 percentage of positive control | 6.19 percentage of positive control | 4.90 percentage of positive control | 8.35 percentage of positive control | 13.41 percentage of positive control | 
Cc1ccc(/C=C/C(=O)NCCCCCO)cc1 [H-415/21, (2E)-N-(5-hydroxypentyl)-3-(4-methylphenyl)prop-2-enamide] | 0.33 | 0.33 | 0.00 | 103.27±1.88 % of solvent control | 99.89±2.43 % of solvent control | 94.81±2.92 % of solvent control | 87.64±1.44 % of solvent control | 4.22 percentage of positive control | 6.01 percentage of positive control | 8.34 percentage of positive control | 14.94 percentage of positive control | 8.81 percentage of positive control | 8.75 percentage of positive control | 9.82 percentage of positive control | 16.63 percentage of positive control | 3.90 percentage of positive control | 7.24 percentage of positive control | 8.92 percentage of positive control | 10.55 percentage of positive control | 
O=C(/C=C/c1ccc(Cl)cc1)NCCO [H-427/21, (2E)-3-(4-chlorophenyl)-N-(2-hydroxyethyl)prop-2-enamide] |  |  |  | 102.20±2.24 % of solvent control | 100.57±2.18 % of solvent control | 93.78±2.18 % of solvent control | 85.19±2.03 % of solvent control | 3.93 percentage of positive control | 4.44 percentage of positive control | 4.31 percentage of positive control | 15.01 percentage of positive control | 2.75 percentage of positive control | 5.92 percentage of positive control | 9.00 percentage of positive control | 17.32 percentage of positive control | 3.09 percentage of positive control | 4.45 percentage of positive control | 5.98 percentage of positive control | 8.87 percentage of positive control | 

From patent publication EP4324461A1, “(E)-N-CINAMOYLAMINOALKANOLES WITH MELANOGENESIS INHIBITORY ACTIVITY” (UNIWERSYTET JAGIELLONSKI, priority 2022, dated 2024)
